Entries after “also recorded” stand apart in the source; their conditions may differ.
Legend:
[1] = system: SW480, RKO and HCT116 cells; test: Tumor cell apoptosis assay: ceramide analog at sublethal dose plus FasL (Annexin V/PI); assay type: cell-based, human; conditions: for increase of cell sensitivity to FasL-induced apoptosis: sublethal dose of analog (10 μM) plus FasL (10 ng/ml SW480, HCT; 100 ng/ml RKO); for activity in human colon carcinoma: summary statement
Experimental: FIG. 5A is a bar graph of Percent Apoptotic cell death of SW480 cells treated with the indicated ceramide analogs (10 μM), with (10 ng/ml) or without FasL and treated with FasL alone. FIG. 5B is a bar graph of Percent Apoptotic cell death of RKO cells treated with the indicated ceramide analogs (10 μM), with (100 ng/ml) or without FasL and treated with FasL alone. FIG. 5C is a bar graph of Percent Apoptotic cell death of HCT cells treated with the indicated ceramide analogs (10 μM), with (10 ng/ml) or without FasL and treated with FasL alone. % apoptotic cell death was calculated as % Annexin V^+PI^+ cells in the presence of ceramide analogs plus MegaFasL−% Annexin V^+PI^+ cells in the control group. Column: mean; Bar: SD.
Tumor cells were cultured in the presence of MegaFasL at the indicated concentrations as previously described Hu, X. et al. Deregulation of apoptotic factors Bcl-xL and Bax confers apoptotic resistance to myeloid-derived suppressor cells and contributes to their persistence in cancer. J Biol Chem 288, 19103-19115, doi:10.1074/jbc.M112.434530M112.434530 [pii] (2013). FasL (Mega-Fas Ligand®, kindly provided by Drs. Steven Butcher and Lars Damstrup at Topotarget A/S, Denmark) is a recombinant fusion protein that consists of three human FasL extracellular domains linked to a protein backbone comprising the dimmer-forming collagen domain of human adiponectin. The Mega-Fas Ligand was produced as a glycoprotein in mammalian cells using Good Manufacturing Practice compliant process in Topotarget A/S (Copenhagen, Denmark). For tumor cell apoptosis analysis, cells were stained with Alexa Fluor 647 Annexin V (Biolegend) in Annjixin V-binding buffer (10 mM Hepes, pH 7.4, 140 mM NaCl, 2.5 mM CaCl2) for 30 min at 4° C. Propidium Iodide was then added to the cell suspension, and cells were analyzed by flow cytometry as previously described Bardhan, K. et al. IFNgamma induces DNA methylation-silenced GPR109A expression via pSTAT1/p300 and H3K18 acetylation in colon cancer. Cancer Immunol Res, doi:canimm.0164.2014 [pii]2326-6066.CIR-14-0164 [pii] 10.1158/2326-6066.CIR-14-0164 (2015).
Next, the efficacy of the ceramide analogs was tested at their sublethal doses in enhancement of FasL-induced apoptosis using SW480, RKO and HCT116 cells. Tumor cells were treated with a sublethal dose of each of these 20 ceramide analogs along or ceramide analog plus FasL, and analyzed for apoptosis. […] Therefore, six novel ceramide analogs were identified that can effectively enhance the efficacy of FasL-induced apoptosis in human colon carcinoma cells.

[2] = system: CT26 cells; test: CT26 colon carcinoma lung metastasis in BALB/c mice; assay type: in vivo; conditions: 25 and 50 kg body weight, intraperitoneal, days 8, 10 and 12 after tumor injection
Experimental: FIG. 8 is a bar graph of number of tumor nodules/lung in lungs taken from BALB/c mice injected with CT26 cells (2.5×10^5 cell per mouse). Tumor-bearing mice were treated with the indicated 5 ceramide analogs (25 and 50 […]) by intraperitoneal injection at days 8, 10 and 12 after tumor injection. CT26 cells (2.5×10^5 cell per mouse) were injected to BALB/c mice on […]. Tumor-bearing mice were treated with the 5 ceramide analogs (25 and 50 […]) by intraperitoneal injection at days 8, 10 and 12 after tumor injection. […]. Mouse lungs were inflated with ink and fixed. […] White dots are tumor nodules. Bottom panel: quantification of tumor nodule number in the lungs.

[3] = system: SW480 cells; test: Cell viability (MTT) assay, cytotoxicity of ceramide analogs; assay type: cell-based, human; conditions: three days, at the doses tested
Experimental: FIG. 4 is a bar graph of Percent Cell Viability (MTT assay) showing. cytotoxicity of the indicated ceramide analogs to human colon carcinoma cells. Human colon carcinoma SW480 cells were cultured in the presence of ceramide analogs at the indicated concentrations for three days. Cell viability was determined by MTT assays. % cell viability of control was set at 100% and cell viability of treatment groups was calculated as % of the control groups. IC50 was calculated using GraphPad Prism program.
Cells were seeded in 96-well plates at 2×10^3 cells/well in 100 μl culture medium for 3 days. Cell viability assays were performed using the MTT cell proliferation assay kit (ATCC, Manassas, Va.) according to the manufacturer's instructions.
The structures and functions of ceramide analogs Cheng, J. C. et al. Radiation-induced acid ceramidase confers prostate cancer resistance and tumor relapse. J Clin Invest 123, 4344-4358, doi:10.1172/JCI6479164791 [pii] (2013); and Paschall, A. V. et al. Ceramide targets xIAP and cIAP1 to sensitize metastatic colon and breast cancer cells to apoptosis induction to suppress tumor progression. BMC Cancer 14, 24, doi:10.1186/1471-2407-14-241471-2407-14-24 [pii] (2014) were analyzed and synthesized twenty ceramide analogs to be developed into Fas sensitizers (Supplemental Table 1). […]

[4] = system: CT26 tumor cells; test: CTL cytotoxicity assay with perforin-deficient CTLs (pfpCTL); assay type: cell-based; conditions: analog alone at the dose used
Experimental: FIG. 7A is a line graph of percent tumor cell lysis verus pfpCTLs E/T ratio. Cells were gated for CFSE^+ tumor cells. The gated cells were then analyzed for PI^+ cells. % tumor cell lysis was calculated as % CFSE^+PI^+ cells in the presence of CTLs−% CFSE^+PI^+ cells in the absence of CTLs. FIG. 7B is a bar graph of percent tumor cell lysis Cells were gated for CFSE^+ tumor cells. The gated cells were then analyzed for PI^+ cells. % tumor cell lysis was calculated as % CFSE^+PI^+ cells in the presence of ceramide analogs or ceramide analogs plus pfpCTLs−% CFSE^+PI^+ cells in the absence of ceramide analogs or ceramide analogs plus pfpCTLs. Column: mean; Bar: SD. Bolded ** indicated p<0.01 between ceramide analog+pfpCTLs group and pfpCTLs only group, and green ** indicates p<0.01 between ceramide analog+pfpCTLs group and ceramide analog only group. Column: mean; Bar: SD.
Perforin-deficient CTLs were generated and maintained by weekly stimulation with AH1 peptide as previously described Liu, K., Caldwell, S. A., Greeneltch, K. M., Yang, D. & Abrams, S. I. CTL Adoptive Immunotherapy Concurrently Mediates Tumor Regression and Tumor Escape. J Immunol 176, 3374-3382 (2006). […] Cells were analyzed immediately by flow cytometry. CFSE^+ tumor cells were gated and analyzed for PI^+ cells. […]

Which results are given for CCCCCCCCCCCCCNC(=O)[C@@H](NC(=O)c1cc2c(F)cccc2[nH]1)[C@@H](C)O [IG4]?
increase of cell sensitivity to FasL-induced apoptosis [1]: effectively increase; also recorded: significant efficacy; activity in human colon carcinoma [1]: potent activity; established colon carcinoma lung metastasis (tumor nodules/lung) [2]: suppress

For CCCCCCCCCCCCCNC(=O)[C@@H](NC(=O)c1cc2cc(OC)ccc2[nH]1)[C@@H](C)O [IG7], which “increase of cell sensitivity to FasL-induced apoptosis” value (from here on “increase of cell sensitivity”) [1] is on record?
Its value is “effectively increase; also recorded: significant efficacy”.

And the “activity in human colon carcinoma” value [1]?
The value was “potent activity”.

What about the “established colon carcinoma lung metastasis (tumor nodules/lung)” value [2] of the same compound?
The value was “suppress”.

CCCCCCCCCCCCN(C)C(=O)[C@@H](NC(=O)c1cc2c(F)cccc2[nH]1)[C@@H](C)O [IG19] was tested. Which “increase of cell sensitivity” value [1] did it give?
The value was “effectively increase; also recorded: significant efficacy”.

And the “established colon carcinoma lung metastasis (tumor nodules/lung)” value [2]?
Its value is “suppress”.

With CCCCCCCC/C=C\CCCCCCCC(=O)N[C@H](CO)[C@@H](O)c1ccc([N+](=O)[O-])cc1 [IG17, N-((1S,2R)-1,3-dihydroxy-1-(4-nitrophenyl)propan-2-yl)oleamide] as the compound, how does the “increase of cell sensitivity” value [1] read?
Its value is “effectively increase; also recorded: significant efficacy”.

And the “activity in human colon carcinoma” value [1]?
Its value is “potent activity”.

And the “established colon carcinoma lung metastasis (tumor nodules/lung)” value [2]?
The value was “suppress”.

How did the cytotoxicity [3] turn out when CCCCCCCCCCCCN(C)C(=O)[C@@H](NC(=O)c1cc2cc(Br)ccc2[nH]1)[C@@H](C)O [IG10] was run?
Its cytotoxicity is “no cytotoxicity”.

With CCCC/C=C/CCCCCCCC(=O)N[C@H](CO)[C@@H](O)c1ccc([N+](=O)[O-])cc1 [IG20, (E)-N-((1S,2R)-1,3-dihydroxy-1-(4-nitrophenyl)propan-2-yl)tetradec-9-enamide] as the compound, how does the cytotoxicity [3] read?
Its cytotoxicity is “no cytotoxicity”.

With CCCCCCCCCCCCN(C)C(=O)[C@@H](NC(=O)c1cc2cc(C)ccc2[nH]1)[C@@H](C)O [IG9] as the compound, how does the “activity in human colon carcinoma” value [1] read?
Its value is “potent activity”.

CCCCCCCCCCCCCNC(=O)[C@@H](NC(=O)c1cc2c(OC)cccc2[nH]1)[C@@H](C)O [IG8] was tested. Which “increase of cell sensitivity” value [1] did it give?
The value was “effectively increase; also recorded: significant efficacy”.

What about the “activity in human colon carcinoma” value [1] of the same compound?
The value was “potent activity”.

What about the “cytotoxicity to CT26 tumor cells” value [4] of the same compound?
The value was “high cytotoxicity”.

How did the “increase of cell sensitivity” value [1] turn out when CCCCCCCCCCCCN(C)C(=O)[C@@H](NC(=O)c1cc2cc(F)ccc2[nH]1)[C@@H](C)O [IG14] was run?
Its value is “effectively increase; also recorded: significant efficacy”.

What about the “activity in human colon carcinoma” value [1] of the same compound?
The value was “potent activity”.
